Results taken from PubChem BioAssay AID1963863 (Molecular Pharmacology Branch, DTP, NCI, 2024).

System: 931267-113-T-J1-PDC KRAS spheroid with HUVEC/MSC, viability
Assay: Anticancer human tumor 931267-113-T-J1-PDC patient-derived colon adenocarcinoma cell line growth inhibition [KRAS2]
Conditions: for IC50: curve of first compound; for viability, T/C: stronger effect = lower value
Procedure, shortened: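 Combination screen of spheroid viability in tumor-cell co-cultures with endothelial (HUVEC) and mesenchymal stem cell stroma. Each agent was tested in half-log dilutions, topping at clinical Cmax or at 10 microM without a known Cmax.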

[1] = second compound 0.1 µM, first compound 0.0316 µM
[2] = second compound 0.1 µM, first compound 0.1 µM
[3] = second compound 0.1 µM, first compound 0.316 µM
[4] = second compound 0.1 µM, first compound 1 µM
[5] = second compound 0.1 µM, first compound 3.16 µM
[6] = second compound 0.1 µM, first compound 10 µM
[7] = second compound 0.316 µM, first compound 0.0316 µM
[8] = second compound 0.316 µM, first compound 0.1 µM
[9] = second compound 0.316 µM, first compound 0.316 µM
[10] = second compound 0.316 µM, first compound 1 µM
[11] = second compound 0.316 µM, first compound 3.16 µM
[12] = second compound 0.316 µM, first compound 10 µM
[13] = second compound 1 µM, first compound 0.0316 µM
[14] = second compound 1 µM, first compound 0.1 µM
[15] = second compound 1 µM, first compound 0.316 µM
[16] = second compound 1 µM, first compound 1 µM
[17] = second compound 1 µM, first compound 3.16 µM
[18] = second compound 1 µM, first compound 10 µM
[19] = second compound 3.16 µM, first compound 0.0316 µM
[20] = second compound 3.16 µM, first compound 0.1 µM
[21] = second compound 3.16 µM, first compound 0.316 µM
[22] = second compound 3.16 µM, first compound 1 µM
[23] = second compound 3.16 µM, first compound 3.16 µM
[24] = second compound 3.16 µM, first compound 10 µM
[25] = second compound 10 µM, first compound 0.0316 µM
[26] = second compound 10 µM, first compound 0.1 µM
[27] = second compound 10 µM, first compound 0.316 µM
[28] = second compound 10 µM, first compound 1 µM
[29] = second compound 10 µM, first compound 3.16 µM
[30] = second compound 10 µM, first compound 10 µM
[31] = second compound 0.1 µM, first compound 0.00316 µM
[32] = second compound 0.1 µM, first compound 0.01 µM
[33] = second compound 0.316 µM, first compound 0.00316 µM
[34] = second compound 0.316 µM, first compound 0.01 µM
[35] = second compound 1 µM, first compound 0.00316 µM
[36] = second compound 1 µM, first compound 0.01 µM
[37] = second compound 3.16 µM, first compound 0.00316 µM
[38] = second compound 3.16 µM, first compound 0.01 µM
[39] = second compound 10 µM, first compound 0.00316 µM
[40] = second compound 10 µM, first compound 0.01 µM
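Note: compound exposure lasted 7 days before the readout.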
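Throughout, for viability, T/C: 100% = DMSO vehicle control viability.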

Q: With `CC(C)NCC(C(=O)N1CCN(c2ncnc3c2C(C)CC3O)CC1)c1ccc(Cl)cc1` (stereo not given) + COc1cc2nc(C)nc(NC(C)c3cc(N)cc(C(F)(F)F)c3)c2cc1OC1CCOC1 as the compound, how does the IC50 (second compound 0.1 µM) read?
A: The IC50 was > 10000 nM.

Q: And the IC50 (second compound 0.316 µM)?
A: The IC50 was 5270 nM.

Q: And the IC50 (second compound 1 µM)?
A: Its IC50 is 4360 nM.

Q: What about the IC50 (second compound 3.16 µM) of the same compound?
A: The IC50 was 1620 nM.

Q: What about the IC50 (second compound 10 µM) of the same compound?
A: The IC50 was < 31.6 nM.

Q: And the viability, T/C [1]?
A: The viability, T/C was 87.4%.

Q: And the viability, T/C [2]?
A: Its viability, T/C is 105%.

Q: What about the viability, T/C [3] of the same compound?
A: Its viability, T/C is 104%.

Q: And the viability, T/C [4]?
A: The viability, T/C was 77.2%.

Q: What about the viability, T/C [5] of the same compound?
A: Its viability, T/C is 58.3%.

Q: And the viability, T/C [6]?
A: The viability, T/C was 59.9%.

Q: What about the viability, T/C [7] of the same compound?
A: Its viability, T/C is 106%.

Q: And the viability, T/C [8]?
A: The viability, T/C was 91.6%.

Q: And the viability, T/C [9]?
A: The viability, T/C was 83.3%.

Q: What about the viability, T/C [10] of the same compound?
A: Its viability, T/C is 76.2%.

Q: And the viability, T/C [11]?
A: The viability, T/C was 56%.

Q: And the viability, T/C [12]?
A: Its viability, T/C is 40.4%.

Q: And the viability, T/C [13]?
A: The viability, T/C was 88%.

Q: What about the viability, T/C [14] of the same compound?
A: Its viability, T/C is 76.9%.

Q: And the viability, T/C [15]?
A: The viability, T/C was 72.7%.

Q: And the viability, T/C [16]?
A: Its viability, T/C is 70.4%.

Q: What about the viability, T/C [17] of the same compound?
A: The viability, T/C was 54%.

Q: And the viability, T/C [18]?
A: Its viability, T/C is 37.9%.

Q: What about the viability, T/C [19] of the same compound?
A: Its viability, T/C is 78.5%.

Q: What about the viability, T/C [20] of the same compound?
A: The viability, T/C was 76.7%.

Q: What about the viability, T/C [21] of the same compound?
A: Its viability, T/C is 67.2%.

Q: And the viability, T/C [22]?
A: The viability, T/C was 54.6%.

Q: And the viability, T/C [23]?
A: Its viability, T/C is 42.7%.

Q: What about the viability, T/C [24] of the same compound?
A: The viability, T/C was 20.6%.

Q: And the viability, T/C [25]?
A: Its viability, T/C is 0.91%.

Q: What about the viability, T/C [26] of the same compound?
A: Its viability, T/C is 1.02%.

Q: What about the viability, T/C [27] of the same compound?
A: Its viability, T/C is 0.68%.

Q: What about the viability, T/C [28] of the same compound?
A: The viability, T/C was 0.76%.

Q: What about the viability, T/C [29] of the same compound?
A: Its viability, T/C is 0.45%.

Q: What about the viability, T/C [30] of the same compound?
A: The viability, T/C was 0.48%.

Q: What does the source list for `CCN1CCN(Cc2ccc(Nc3ncc(F)c(-c4cc(F)c5nc(C)n(C(C)C)c5c4)n3)nc2)CC1` + COc1cc2nc(C)nc(NC(C)c3cc(N)cc(C(F)(F)F)c3)c2cc1OC1CCOC1?
A: IC50 (second compound 0.1 µM): 454 nM; IC50 (second compound 0.316 µM): 122 nM; IC50 (second compound 1 µM): 258 nM; IC50 (second compound 3.16 µM): 68 nM; IC50 (second compound 10 µM): < 3.16 nM; viability, T/C [31]: 86.4%; viability, T/C [32]: 86.8%; viability, T/C [1]: 62.5%; viability, T/C [2]: 74.7%; viability, T/C [3]: 45.5%; viability, T/C [4]: 45.9%; viability, T/C [33]: 80.6%; viability, T/C [34]: 90.1%; viability, T/C [7]: 72.2%; viability, T/C [8]: 51.2%; viability, T/C [9]: 47.2%; viability, T/C [10]: 37.4%; viability, T/C [35]: 78.7%; viability, T/C [36]: 78.1%; viability, T/C [13]: 76.3%; viability, T/C [14]: 56.4%; viability, T/C [15]: 53.2%; viability, T/C [16]: 42.7%; viability, T/C [37]: 74.5%; viability, T/C [38]: 67.2%; viability, T/C [19]: 49.7%; viability, T/C [20]: 48.8%; viability, T/C [21]: 42.4%; viability, T/C [22]: 27.1%; viability, T/C [39]: 3.71%; viability, T/C [40]: 1.83%; viability, T/C [25]: 2.06%; viability, T/C [26]: 3.4%; viability, T/C [27]: 1.38%; viability, T/C [28]: 0.23%

Q: What does the source list for `CCNC(=O)CC1N=C(c2ccc(Cl)cc2)c2cc(OC)ccc2-n2c(C)nnc21` (stereo not given) + COc1cc2nc(C)nc(NC(C)c3cc(N)cc(C(F)(F)F)c3)c2cc1OC1CCOC1?
A: IC50 (second compound 0.1 µM): 1760 nM; IC50 (second compound 0.316 µM): 711 nM; IC50 (second compound 1 µM): 634 nM; IC50 (second compound 3.16 µM): 506 nM; IC50 (second compound 10 µM): < 31.6 nM; viability, T/C [1]: 81.1%; viability, T/C [2]: 73.4%; viability, T/C [3]: 58.7%; viability, T/C [4]: 63.5%; viability, T/C [5]: 41.7%; viability, T/C [6]: 31.9%; viability, T/C [7]: 78.1%; viability, T/C [8]: 62.4%; viability, T/C [9]: 75.9%; viability, T/C [10]: 40.7%; viability, T/C [11]: 31.4%; viability, T/C [12]: 26.6%; viability, T/C [13]: 66.1%; viability, T/C [14]: 76.3%; viability, T/C [15]: 59.1%; viability, T/C [16]: 42.1%; viability, T/C [17]: 30.8%; viability, T/C [18]: 22.4%; viability, T/C [19]: 59.5%; viability, T/C [20]: 64.7%; viability, T/C [21]: 62.4%; viability, T/C [22]: 32.5%; viability, T/C [23]: 23.2%; viability, T/C [24]: 22%; viability, T/C [25]: 2.75%; viability, T/C [26]: 3.6%; viability, T/C [27]: 1.18%; viability, T/C [28]: 0.76%; viability, T/C [29]: 0.92%; viability, T/C [30]: 0.42%

Q: Which results are given for `Cn1ncnc1[C@H]1c2n[nH]c(=O)c3cc(F)cc(c23)N[C@@H]1c1ccc(F)cc1` + COc1cc2nc(C)nc(NC(C)c3cc(N)cc(C(F)(F)F)c3)c2cc1OC1CCOC1?
A: IC50 (second compound 0.1 µM): > 100 nM; IC50 (second compound 0.316 µM): > 100 nM; IC50 (second compound 1 µM): > 100 nM; IC50 (second compound 3.16 µM): > 100 nM; IC50 (second compound 10 µM): < 0.316 nM; viability, T/C (second compound 0.1 µM, first compound 0.000316 µM): 103%; viability, T/C (second compound 0.1 µM, first compound 0.001 µM): 88.5%; viability, T/C [31]: 86.6%; viability, T/C [32]: 107%; viability, T/C [1]: 88.5%; viability, T/C [2]: 74.4%; viability, T/C (second compound 0.316 µM, first compound 0.000316 µM): 83.9%; viability, T/C (second compound 0.316 µM, first compound 0.001 µM): 108%; viability, T/C [33]: 83.6%; viability, T/C [34]: 96.3%; viability, T/C [7]: 92.4%; viability, T/C [8]: 77.9%; viability, T/C (second compound 1 µM, first compound 0.000316 µM): 108%; viability, T/C (second compound 1 µM, first compound 0.001 µM): 99.8%; viability, T/C [35]: 79.7%; viability, T/C [36]: 88.3%; viability, T/C [13]: 83.4%; viability, T/C [14]: 95.4%; viability, T/C (second compound 3.16 µM, first compound 0.000316 µM): 69.5%; viability, T/C (second compound 3.16 µM, first compound 0.001 µM): 87%; viability, T/C [37]: 61.6%; viability, T/C [38]: 67.6%; viability, T/C [19]: 63.5%; viability, T/C [20]: 52.4%; viability, T/C (second compound 10 µM, first compound 0.000316 µM): 0.8%; viability, T/C (second compound 10 µM, first compound 0.001 µM): 0.47%; viability, T/C [39]: 0.63%; viability, T/C [40]: 1.27%; viability, T/C [25]: 0.75%; viability, T/C [26]: 1.25%
